Measured values from US20240262842A1, “SMALL MOLECULE INHIBITORS OF KRAS G12C MUTANT” (Merck Sharp & Dohme LLC, priority 2021, published 2024).
Like-named read-outs stand apart in the source and are kept apart here.

Tests used:
[1] = target: biotinylated KRAS G12C protein (GMP-PNP loaded) and GST-tagged Ras binding domain of c-RAF (Homo sapiens, UniProt P01116, C118S/C51S/C80L/G12C); assay: RAS:RAF-RBD binding assay (TR-FRET); conditions: 30-minute incubation of compound with KRAS G12C before RAF-RBD; Table 4; read-out: IC50
[2] = target: T1, interaction between GMPPNP-bound recombinant K-Ras4B G12C mutant protein and cRAF RAS-binding domain (cRAF-RBD) (Homo sapiens, UniProt P01116, G12C); assay: Inhibitory activity on interaction between KRAS G12C and cRAF (Alpha technology); conditions: GMPPNP-bound KRAS G12C incubated with compound 25° C. 1 hour, read-out: IC50
T1 construct: His-tag (N)
In short: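 His-tagged K-Ras4B G12C (aa 1-169), GMPPNP-loaded, preincubated with compound 1 h at 25° C in pH 7.5 Tris buffer with MgCl2, TCEP, Tween 20. cRAF-RBD (aa 50-132) and Alpha reagents then added for 1.5 h; Alpha signal normalised to DMSO (0%) and GDP-bound KRAS (100%); IC50 from dose titration.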

MIA PaCa-2 cells = assay: Growth inhibition activity on KRAS-G12C mutant cell line (CellTiter-Glo 3D); assay type: cell-based, human; conditions: MIA PaCa-2, 3-day culture with compound
In short: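 MIA PaCa-2 cells in RPMI1640 with 10% FBS, U-bottom wells, cultured 1 day before compound (0.2% DMSO final), then 3 days at 37 °C, 5% CO2. Viability by CellTiter-Glo 3D luminescence; growth inhibition versus untreated wells gives IC50 (nM).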

[3] = Homo sapiens, MIA PaCa-2, 72 h, Table 3-1

Question: For `Cc1nc2c3c(c(C(F)(F)F)cc2n1C)-c1cccn2c(C(=O)c4cc(F)c(NC(=O)/C(F)=C/CN[C@@H]5CCOC5)c(F)c4)cc(c12)CCO3` (atropisomer, axis not shown) [Example 252, (R,Z)-N-(4-(9,10-dimethyl-7-(trifluoromethyl)-13,14-dihydro-9H-imidazo[4″,5″:5′,6′]benzo[1′,2′:2,3]oxocino[4,5,6-hi]indolizine-2-carbonyl)-2,6-difluorophenyl)-2-fluoro-4-((tetrahydrofuran-3-yl)amino)but-2-enamide], which IC50 [1] is on record?
Answer: 25.7 nM

Question: Which IC50 [1] does the source give for `COCc1nc2c3c(c(OC)cc2n1C)-c1cccn2c(C(=O)c4cc(F)c(NC(=O)/C=C/CNCC5(F)CC5)c(F)c4)cc(c12)CCN3C` (atropisomer, axis not shown) [Example 287, (E)-N-(2,6-difluoro-4-(7-methoxy-10-(methoxymethyl)-9,12-dimethyl-9,12,13,14-tetrahydroimidazo[4″,5″:5′,6′]benzo[1′,2′:2,3]azocino[4,5,6-hi]indolizine-2-carbonyl)phenyl)-4-(((1-fluorocyclopropyl)methyl)amino)but-2-enamide] here?
Answer: 16.6 nM

Question: `COCc1nc2c3c(c(OC)cc2n1C)-c1cccn2c(C(=O)c4cc(F)c(NC(=O)/C=C/[C@@H]5C[C@@H](F)CN5)c(F)c4)cc(c12)CCN3C` (atropisomer, axis not shown) [Example 293, (E)-N-(2,6-difluoro-4-(7-methoxy-10-(methoxymethyl)-9,12-dimethyl-9,12,13,14-tetrahydroimidazo[4″,5″:5′,6′]benzo[1′,2′:2,3]azocino[4,5,6-hi]indolizine-2-carbonyl)phenyl)-3-((2S,4R)-4-fluoropyrrolidin-2-yl)acrylamide] was tested. Which IC50 [1] did it give?
Answer: 16 nM

Question: With `Cc1nc2c3c(c(C(F)(F)F)cc2n1C)-c1cccn2c(C(=O)c4cc(F)c(NC(=O)/C(F)=C/CNC5(C)CCOCC5)c(F)c4)cc(c12)CCO3` (atropisomer, axis not shown) [Example 296, (Z)-N-(4-(9,10-dimethyl-7-(trifluoromethyl)-13,14-dihydro-9H-imidazo[4″,5″:5′,6′]benzo[1′,2′:2,3]oxocino[4,5,6-hi]indolizine-2-carbonyl)-2,6-difluorophenyl)-2-fluoro-4-((4-methyltetrahydro-2H-pyran-4-yl)amino)but-2-enamide] as the compound, how does the IC50 [1] read?
Answer: 14.8 nM

Question: With `Cn1cnc2c3c(c(C(F)(F)F)cc21)-c1cccn2c(C(=O)c4cc(F)c(NC(=O)/C=C/CN5CC6COCC5C6)c(F)c4)cc(c12)CCO3` (centres unmarked) [Example 230, (E)-4-(3-oxa-6-azabicyclo-[3.2.1]octan-6-yl)-N-(2,6-difluoro-4-(9-methyl-7-(trifluoromethyl)-13,14-dihydro-9H-imidazo-[4″,5″:5′,6′]benzo[1′,2′: 2,3]oxocino[4,5,6-hi]-indolizine-2-carbonyl)-phenyl)but-2-enamide] as the compound, how does the IC50 ([2]; Table 2-1) read?
Answer: 20.1 nM

Question: And the IC50 (MIA PaCa-2 cells; [3])?
Answer: 14.4 nM

Question: Which results are given for `CC1(NC/C=C/C(=O)Nc2c(F)cc(C(=O)c3cc4c5c(cccn35)-c3c(cc(N5CCOC5=O)cc3C(F)(F)F)OCC4)cc2F)CC1` [Example 232, (E)-N-(2,6-difluoro-4-(7-(2-oxooxazolidin-3-yl)-9-(trifluoromethyl)-3.4-dihydrobenzo[2,3]oxo-cino-[4,5,6-hi]indolizine-1-carbonyl)phenyl)-4-((1-methylcyclopropyl)amino)-but-2-enamide]?
Answer: IC50 ([2]; Table 2-1): 49.7 nM; IC50 (MIA PaCa-2 cells; [3]): 18 nM

Question: Which IC50 ([2]; Table 2-1) does the source give for `CC1(NC/C=C/C(=O)Nc2c(F)cc(C(=O)c3cc4c5c(cccn35)-c3c(cc(N5CCNC5=O)cc3C(F)(F)F)OCC4)cc2F)CC1` [Example 233, (E)-N-(2,6-difluoro-4-(7-(2-oxoimidazolidin-1-yl)-9-(trifluoromethyl)-3,4-dihydrobenzo[2,3]oxo-cino[4,5,6-hi]indolizine-1-carbonyl)phenyl)-4-((1-methylcyclopropyl)-amino)but-2-enamide] here?
Answer: 52.6 nM

Question: What about the IC50 (MIA PaCa-2 cells; [3]) of the same compound?
Answer: 14 nM

Question: For `Cn1cnc2c3c(c(C(F)(F)F)cc21)-c1cccn2c(C(=O)c4cc(F)c(NC(=O)/C=C/CN5CC6CCC5C6)c(F)c4)cc(c12)CCO3` (centres unmarked) [Example 234, (E)-4-(2-azabicyclo-[2.2.1]heptan-2-yl)-N-(2,6-difluoro-4-(9-meth-yl-7-(trifluoromethyl)-13,14-dihydro-9H-imidazo-[4″,5″:5′,6′]-benzo[1′,2′:2,3]oxocino-[4,5,6-hi]indolizine-2-carbonyl)phenyl)but-2-enamide], which IC50 ([2]; Table 2-1) is on record?
Answer: 20.5 nM

Question: What about the IC50 (MIA PaCa-2 cells; [3]) of the same compound?
Answer: 7.08 nM

Question: Which results are given for `Cn1cnc2c3c(c(C(F)(F)F)cc21)-c1cccn2c(C(=O)c4cc(F)c(NC(=O)/C=C/CN5C6CCCC5CC6)c(F)c4)cc(c12)CCO3` [Example 235, (E)-4-((1R,5S)-8-azabicyclo[3.2.1]octan-8-yl)-N-(2,6-difluoro-4-(9-methyl-7-(trifluoro-methyl)-13,14-dihydro-9H-imidazo[4″,5″:5′,6′]-benzo[1′,2′:2,3]oxocino-[4,5,6-hi]indolizine-2-carbonyl)phenyl)but-2-enamide]?
Answer: IC50 ([2]; Table 2-1): 21.9 nM; IC50 (MIA PaCa-2 cells; [3]): 17 nM

Question: For `Cn1cnc2c3c(c(C(F)(F)F)cc21)-c1cccn2c(C(=O)c4cc(F)c(NC(=O)/C=C/CN5C6CCC5CC6)c(F)c4)cc(c12)CCO3` [Example 236, (E)-4-(7-azabicyclo[2.2.1]-heptan-7-yl)-N-(2,6-difluoro-4-(9-methyl-7-(trifluoromethyl)-13,14-dihydro-9H-imidazo-[4″,5″:5′,6′]benzo[1′,2′: 2,3]oxocino[4,5,6-hi]-indolizine-2-carbonyl)-phenyl)but-2-enamide], which IC50 ([2]; Table 2-1) is on record?
Answer: 16.5 nM

Question: And the IC50 (MIA PaCa-2 cells; [3])?
Answer: 4.03 nM

Question: With `COCCn1c(C)nc2c3c(c(OC)cc21)-c1cccn2c(C(=O)c4cc(F)c(NC(=O)C=CCNC5(C)CC5)c(F)c4)cc(c12)CCS3` [Example 240, (E)-N-(2,6-difluoro-4-(7-methoxy-9-(2-methoxyethyl)-10-methyl-13,14-dihydro-9H-imidazo[4″,5″:5′,6′]benzo[1′,2′:2,3]thiocino[4,5,6-hi]indolizine-2-carbonyl)phenyl)-4-((1-methylcyclopropyl)amino)but-2-enamide] as the compound, how does the IC50 ([2]; Table 2-1) read?
Answer: 8.93 nM

Question: And the IC50 (MIA PaCa-2 cells; [3])?
Answer: 14.5 nM

Question: `COCCn1c(C)nc2c3c(c(OC)cc21)-c1cccn2c(C(=O)c4cc(F)c(NC(=O)/C=C/CNC5(C)CC5)c(F)c4)cc(c12)CC[S+]3[O-]` (centres unmarked) [Example 241] was tested. Which IC50 ([2]; Table 2-1) did it give?
Answer: 31 nM

Question: What about the IC50 (MIA PaCa-2 cells; [3]) of the same compound?
Answer: 877 nM

Question: Which results are given for `COCCn1c(COC)[n+]([O-])c2c3c(c(OC)cc21)-c1cccn2c(C(=O)c4cc(F)c(NC(=O)/C=C/CNC5(C)CC5)c(F)c4)cc(c12)CCN3C` [Example 243, (E)-2-(3,5-difluoro-4-(4-((1-methylcyclopropyl)-amino)but-2-enamido)-benzoyl)-7-methoxy-9-(2-methoxyethyl)-10-(methoxymethyl)-12-methyl-9,12,13,14-tetra-hydroimidazo[4″,5″:5′,6′]-benzo[1′,2′:2,3]azocino-[4,5,6-hi]indolizine 11-oxide]?
Answer: IC50 ([2]; Table 2-1): 83.2 nM; IC50 (MIA PaCa-2 cells; [3]): 91.8 nM

Question: What does the source list for `COc1cc2c(nc(C)n2C)c2c1-c1cccn3c(C(=O)c4cc(F)c(NC(=O)/C=C/CNC5(C)CCCC5)c(F)c4)cc(c13)CCN2C` [Example 245, (E)-N-(2,6-difluoro-4-(7-methoxy-9,10,12-trimeth-yl-9,12,13,14-tetrahydro-imidazo[4″,5″:5′,6′]benzo-[1′,2′:2,3]azocino[4,5,6-hi]indolizine-2-carbonyl)-phenyl)-4-((1-methyl-cyclopentyl)amino)but-2-enamide]?
Answer: IC50 ([2]; Table 2-1): 33.1 nM; IC50 (MIA PaCa-2 cells; [3]): 25.4 nM

Question: `COCCn1c(C)nc2c3c(c(OC)cc21)-c1cccn2c(C(=O)c4cc(F)c(NC(=O)/C=C/CNC5(C)CCCC5)c(F)c4)cc(c12)CCO3` [Example 246, (E)-N-(2,6-difluoro-4-(7-methoxy-9-(2-methoxyethyl)-10-methyl-13,14-dihydro-9H-imidazo[4″,5″:5′,6′]benzo[1′,2′:2,3]oxocino[4,5,6-hi]indolizine-2-carbonyl)phenyl)-4-((1-methylcyclopentyl)amino)but-2-enamide] was tested. Which IC50 ([2]; Table 2-1) did it give?
Answer: 13.6 nM

Question: And the IC50 (MIA PaCa-2 cells; [3])?
Answer: 17.2 nM

Question: Which results are given for `CN1CCc2cc(C(=O)c3cc(F)c(NC(=O)/C=C/CNC4(C)CSC4)c(F)c3)n3cccc(c23)-c2c(C(F)(F)F)cc3c(ncn3C)c21` [Example 249]?
Answer: IC50 ([2]; Table 2-1): 27.5 nM; IC50 (MIA PaCa-2 cells; [3]): 28.6 nM

Question: Which IC50 ([2]; Table 2-1) does the source give for “(E)-N-(2,6-difluoro-4-(10-(methoxymethyl)-9,13-dimethyl-12-oxo-7-(trifluoromethyl)-9,12,13,14-tetrahydroimidazo[4″,5″:3′,4′]benzo[1′,2′:6,7]azocino[5,4,3-hi]indolizine-2-carbonyl)phenyl)-4-((3-methyloxetan-3-yl)amino)but-2-enamide [Example 152]” here?
Answer: 89.3 nM

Question: What about the IC50 (MIA PaCa-2 cells; Table 3-1) of the same compound?
Answer: 927 nM

Question: “(E)-N-(2,6-difluoro-4-((S)-6,8,9,12-tetramethyl-12,13-dihydro-8H-imidazo[4″,5″:3′,4′]benzo[1′,2′:7,8][1,4]oxazocino[6,5,4-hi]indole-2-carbonyl)pheny 1)-4-(((1,4r)-4-methoxycyclohexyl)amino)but-2-enamide [Example 20]” was tested. Which IC50 ([2]; Table 2) did it give?
Answer: 24 nM

Question: And the IC50 (MIA PaCa-2 cells; Table 3)?
Answer: 49 nM
